Assay results taken from patent publication US20240360153A1 (Regeneron Pharmaceuticals, Inc., priority 2023, published 2024).

Key:
[1] = In vitro microsomal metabolic stability, human liver microsomes; assay type: in vitro ADME; details: for Remaining (T = 60 min) / Remaining (T = NCF60 min) / half-life at 1 µM: Human liver microsomes; for Remaining (T = 60 min): with NADPH; for Remaining (T = NCF60 min): without NADPH regenerating system; for Remaining (T = 60 min) / Remaining (T = NCF60 min): 60 min; for CLint scaled at 1 µM / microsomal CLint at 1 µM: human, human liver microsomes; for CLint scaled at 1 µM / microsomal CLint at 1 µM / half-life at 1 µM: pH 7.2; for half-life at 1 µM: 0.5 mg/ml protein, NADPH
In short: (§1)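 Compounds at 1 μM incubated at 37° C with pooled CD-1 mouse or human liver microsomes (0.5 mg/mL protein) plus NADPH regenerating system in 50 mM potassium phosphate, pH 7.2, 3.3 mM MgCl2; sampled at 0–60 min, 60-min no-NADPH control. Parent loss by LC/MS/MS analyte/IS peak-area ratio, n=1.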

[2] = Pharmacokinetic studies in male CD-1 mice (plasma, IV and PO); assay type: in vivo, mouse; details: male; for clearance / Vd / bioavailability: CD-1, plasma, mouse; for clearance / Vd / half-life: IV 2 mg/kg; for clearance: read-out: CI(mL/min/kg), compounds clearance following IV administration; for Vd: read-out: Vdss (L/kg), volume of distribution following IV administration; for bioavailability: PO 20 mg/kg vs IV 2 mg/kg; for half-life / Cmax / concentration at 8 h / concentration at 24 h: CD-1, mouse plasma; for half-life: read-out: IV T1/2 (converted); for Cmax / concentration at 8 h / concentration at 24 h: PO 20 mg/kg; for concentration at 8 h: read-out: Compound concentration at 8-hour, PO administration; for concentration at 24 h: read-out: Compound concentration at 24-hour, PO administration
Procedure: Animal experiments were carried out at Wuxi AppTec. Male 6-8 weeks old CDI mice were obtained from Hilltop Labs. Following arrival at Wuxi AppTec, mice were housed in animal rooms with environmental control (temperature: 20 to 26° C.; lighting: 12 hour light/dark cycle). Mice were fed with certified pellet diet (Certified Rodent Diet #5002 by LabDiet). Water was provided to the animals ad libitum. Mice were acclimated to the facility for at least 3 days prior to starting experiments.
Appropriate amount of test article formulated in 5% ethanol, 5% Tween-80 and 5% PEG-400, 85% water. Formulation was prepared on the day of dosing and dosed within 2 hours following preparation of formulations. Dose accuracy was determined by LC-MS/MS.
Dose formulation(s) were administered following facility SOPs. Dose volumes were determined individually prior to dosing based on animals' body weights.
About 40 μL of blood samples were collected via peripheral veins (e.g. saphenous veins) at each pre-defined time point. Blood samples were collected into tubes containing K2EDTA as anti-coagulant and kept on ice until centrifugation.
Blood samples were centrifuged at 4° C., 3000 g for 5 min within half an hour of collection. Plasma was transferred into polypropylene tubes or 96-well plates, promptly frozen on dry ice and stored at −70±10° C. until analysis by LC-MS/MS.
Test compound concentration in mouse plasma was determined with LC-MS/MS method using a calibration curve with at least 6 non-zero calibration standards.
The pharmacokinetics (PK) of the test article was analyzed using Phoenix WinNonlin software (version 8.3) and non-compartmental analysis model. Derived PK parameters include, but not limited to, C0, CLp, Vdss, Cmax, Tmax, T1/2, AUC(0-t), AUC(0-inf), MRT(0-t), MRT(0-inf) and % F (bioavailability).

[3] = tested on: S6K1 (Thr389) phosphorylation (mTORC1 activity) in wild-type (WT) 293T cells; assay: Inhibition of S6K1 (Thr389) phosphorylation in wild-type 293T cells (ELISA); assay type: cell-based, human; details: for IC50: Homo sapiens, HEK-293T, 2 h, wild-type 293T cells, 2 hours treatment; for extent of inhibition of S6K1 (Thr389) phosphorylation / fold lower potency compared with RAD001 (by IC50): wild-type cells; for extent of inhibition of S6K1 (Thr389) phosphorylation: with increasing concentrations
In short: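 WT 293T cells in DMEM + 10% FBS, grown 24 h to ~80% confluence, then treated 2 h at 37 °C in duplicate with compounds over an 8–11-point range from 0.001 pM to 10 μM. DMSO vehicle served as negative control. Phospho-S6K1 (Thr389) measured by ELISA.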

[4] = tested on: S6K1 (Thr389) phosphorylation (mTORC1 activity) in FKBP12 knock-out 293T cells; assay: Inhibition of S6K1 (Thr389) phosphorylation in FKBP12 knock-out 293T cells (ELISA); assay type: cell-based, human; details: for selectivity for FKBP12 compared with RAD001 (in words): wild-type versus FKBP12 knock-out cells; for inhibition at 10 µM: 10 μM (highest tested concentration)
In short: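 CRISPR-generated FKBP12 knock-out HEK293T cells, alongside wild-type, were treated in duplicate for 2 hours at 37 °C with an 8–11-point dose range (0.001 pM–10 μM). Phospho-S6K1 Thr389 quantified by ELISA as an mTORC1 activity read-out, with DMSO as negative control.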

[5] = In vitro microsomal metabolic stability, CD-1 mouse liver microsomes; assay type: in vitro ADME; details: for CLint scaled at 1 µM / microsomal CLint at 1 µM: CD-1, mouse, mouse liver microsomes, pH 7.2; for half-life at 1 µM: CD-1, pH 7.2, 0.5 mg/ml protein, NADPH; for half-life at 1 µM / Remaining (T = 60 min) / Remaining (T = NCF60 min): Mouse liver microsomes; for Remaining (T = 60 min): with NADPH; for Remaining (T = NCF60 min): without NADPH regenerating system; for Remaining (T = 60 min) / Remaining (T = NCF60 min): 60 min
In short: as §1

[6] = Homo sapiens, HEK-293T, FKBP12 knock-out cells

Compound | Remaining (T = 60 min) [1] [%] | Remaining (T = NCF60 min) [1] [%] | CLint scaled at 1 µM [1] [mL/min/kg] | microsomal CLint at 1 µM [1] [µL/min/mg] | half-life at 1 µM [1] [min] | clearance [2] [mL/min/kg] | Vd [2] [L/kg] | bioavailability [2] [%] | half-life [2] [min] | Cmax [2] [ng/mL] | IC50 [3] [nM] | extent of inhibition of S6K1 (Thr389) phosphorylation [3] | inhibition of S6K1 (Thr389) phosphorylation in the absence of FKBP12 (in words) ([4]; FKBP12 knock-out cells) | selectivity for FKBP12 compared with RAD001 (in words) [4] | CLint scaled at 1 µM [5] [mL/min/kg] | microsomal CLint at 1 µM [5] [µL/min/mg] | half-life at 1 µM [5] [min] | Remaining (T = 60 min) [5] [%] | Remaining (T = NCF60 min) [5] [%] | fold lower potency compared with RAD001 (by IC50) [3] [fold] | other results
CO[C@@H]1CC(C[C@@H](C)[C@@H]2CC[C@H](C)/C=C(\C)[C@@H](O)[C@@H](OC)C(=O)[C@H](C)C[C@H](C)/C=C/C=C/C=C(\C)C(Nc3ccccc3)CC3CC[C@@H](C)[C@@](O)(O3)C(=O)C(=O)N3CCCC[C@H]3C(=O)O2)CC[C@H]1O (stereo partly drawn) [Compound 26, (3S,6S,7E,9R,10R,12R,14S,15E,17E,19E,23S,26R,27R,34aS)-9,27-dihydroxy-3-((R)-1-((1S,3R,4R)-4-hydroxy-3-methoxycyclohexyl)propan-2-yl)-10-methoxy-6,8,12,14,20,26-hexamethyl-21-(phenylamino)-5,6,9,10,12,13,14,21,22,23,24,25,26,27,32,33,34,34a-octadecahydro-3H-23,27-epoxypyrido[2,1-c][1]oxa[4]azacyclohentriacontine-1,11,28,29(4H,31H)-tetraone] | 6.60 | 92.80 | 80.9 | 89.9 | 15.4 | 2.31 | 0.828 | 28.5 | 315 | 4120 | 0.55 | complete inhibition | not inhibit S6K1 at any tested concentrations | more selective to FKBP12 compared with RAD001 | 41.9 | 10.6 | 131 | 69.80 | 92.30 | – | concentration at 8 h [2]: 1320 ng/mL; concentration at 24 h [2]: 184 ng/mL; IC50 of inhibition of S6K1 (Thr389) ([4]; FKBP12 knock-out 293T cells): not measurable/detectable
CO[C@@H]1C[C@H](C[C@@H](C)[C@@H]2CC[C@H](C)/C=C(\C)[C@@H](O)[C@@H](OC)C(=O)[C@H](C)C[C@H](C)/C=C/C=C/C=C(\C)C(Nc3cnon3)C[C@@H]3CC[C@@H](C)[C@@](O)(O3)C(=O)C(=O)N3CCCCC3C(=O)O2)CC[C@H]1O (stereo partly drawn) [Compound 45, (3S,6S,7E,9R,10R,12R,14S,15E,17E,19E,23S,26R,27R,34aS)-21-((1,2,5-oxadiazol-3-yl)amino)-9,27-dihydroxy-3-((R)-1-((1S,3R,4R)-4-hydroxy-3-methoxycyclohexyl)propan-2-yl)-10-methoxy-6,8,12,14,20,26-hexamethyl-5,6,9,10,12,13,14,21,22,23,24,25,26,27,32,33,34,34a-octadecahydro-3H-23,27-epoxypyrido[2,1-c][1]oxa[4]azacyclohentriacontine-1,11,28,29(4H,31H)-tetraone] | 0.00 | 71.30 | – | 194 | 7.13 | 1.13 | 0.475 | 17 | 338 | 9180 | 8.4 | completely inhibit | much less inhibition of S6K1 phosphorylation | relatively more selective for FKBP12 compared with RAD001 | 64.8 | 16.4 | 84.6 | 64.30 | 81.40 | ~18 | concentration at 8 h [2]: 1520 ng/mL; concentration at 24 h [2]: 239 ng/mL; fold less potent compared with RAD001 ([4]; FKBP12 knock-out cells, at similar level of inhibition): ~100 fold; inhibition at 10 µM [4, 6]: ~25%
CO[C@@H]1C[C@H](C[C@@H](C)[C@@H]2CC[C@H](C)/C=C(\C)[C@@H](O)[C@@H](OC)C(=O)[C@H](C)C[C@H](C)/C=C/C=C/C=C(\C)C(NS(=O)(=O)c3cnoc3C)C[C@@H]3CC[C@@H](C)[C@@](O)(O3)C(=O)C(=O)N3CCCCC3C(=O)O2)CC[C@H]1O (stereo partly drawn) [Compound 51, N-((3S,6S,7E,9R,10R,12R,14S,15E,17E,19E,23S,26R,27R,34aS)-9,27-dihydroxy-3-((R)-1-((1S,3R,4R)-4-hydroxy-3-methoxycyclohexyl)propan-2-yl)-10-methoxy-6,8,12,14,20,26-hexamethyl-1,11,28,29-tetraoxo-1,4,5,6,9,10,11,12,13,14,21,22,23,24,25,26,27,28,29,31,32,33,34,34a-tetracosahydro-3H-23,27-epoxypyrido[2,1-c][1]oxa[4]azacyclohentriacontin-21-yl)-5-methylisoxazole-4-sulfonamide] | 0.20 | 89 | 182 | 202 | 6.86 | – | – | – | – | – | 4.53 | near complete inhibition | no further inhibition at 10 μM | not completely selective to FKBP12 | 255 | 64.3 | 21.5 | 15 | 85 | 12 | inhibition at 1 µM ([4]; Homo sapiens, HEK-293T, FKBP12 knock-out cells, 1 μM): 18%
CO[C@@H]1C[C@H](C[C@@H](C)[C@@H]2CC[C@H](C)/C=C(\C)[C@@H](O)[C@@H](OC)C(=O)[C@H](C)C[C@H](C)/C=C/C=C/C=C(\C)C(Nc3cccc(C)c3)C[C@@H]3CC[C@@H](C)[C@@](O)(O3)C(=O)C(=O)N3CCCCC3C(=O)O2)CC[C@H]1O (stereo partly drawn) [Compound 50, (3S,6S,7E,9R,10R,12R,14S,15E,17E,19E,23S,26R,27R,34aS)-9,27-dihydroxy-3-((R)-1-((1S,3R,4R)-4-hydroxy-3-methoxycyclohexyl)propan-2-yl)-10-methoxy-6,8,12,14,20,26-hexamethyl-21-(m-tolylamino)-5,6,9,10,12,13,14,21,22,23,24,25,26,27,32,33,34,34a-octadecahydro-3H-23,27-epoxypyrido[2,1-c][1]oxa[4]azacyclohentriacontine-1,11,28,29(4H,31H)-tetraone] | 18 | 99 | 54.7 | 60.8 | 22.8 | – | – | – | – | – | 5.72 | near complete inhibition | – | selective to FKBP12 | – | < 9.6 | > 145 | 89 | 112 | 15 | inhibition at 10 µM [4, 6]: 12%
